This data set can be described thus: in vitro dissolution testing in simulated gastric fluids, Type 1 USP dissolution apparatus. It is filed as physicochemical. The settings on record: coated trilayer tablet of the Example, 0.01 N hydrochloric acid, 100 rpm, 37° C. The method, then: The coated tablets were subjected to in vitro dissolution testing in simulated gastric fluids (0.01 N hydrochloric acid) at 100 rpm and 37° C. using Type 1 USP dissolution apparatus. [table]

As to `C[C@@](Cc1ccc(O)c(O)c1)(NN)C(=O)O` [Carbidopa], the “% released” value runs as follows: (0 hours) 0%; (1 hour) 22%; (2 hours) 31%; (4 hours) 52%; (6 hours) 76%; (8 hours) 86%.
For the compound `N[C@@H](Cc1ccc(O)c(O)c1)C(=O)O` [levodopa], the “% released” value is recorded as 0% (0 hours); 24% (1 hour); 33% (2 hours); 57% (4 hours); 82% (6 hours); 95% (8 hours).

(Values after patent publication US8187633B2, “Controlled release coated tablets having prolonged gastric retention” (Sun Pharma Advanced Research Company Limited, priority 2005, dated 2012).)
